The test system of this data set is Hep G2 (human hepatocellular carcinoma). Put plainly: Non-lethal concentration range for chemical exposure of Hep G2 cells. Format: cell-based. The protocol:
The hepatocyte cell line, Hep G2 (human hepatocellular carcinoma, obtained from the American Type Culture Collection, Rockville Md., ATCC#HB-8065), was used to evaluate the effects of various chemicals on expression of a set of genes known to be involved in cellular toxicological responses. The cells were routinely maintained in T75 flasks in Eagle's MEM medium (with non-essential amino acids, sodium pyruvate, and Earle's salts) and 10% fetal bovine serum at 37° C. in a humidified atmosphere of 5% CO2. The chemicals used in exposure experiments included cadmium chloride (CdCl2) and methyl methane sulfonate (MMS). CdCl2 is a strong inducer of metallothionein, a metal-binding protein, and is known to be carcinogenic and capable of interfering with DNA repair. MMS is an alkylating agent that induces DNA damage. Dilutions of these compounds were prepared from concentrated stocks obtained from Aldrich Chemical Company (Milwaukee, Wis.). Water was used as the solvent control in dosing studies. […] These concentration ranges were empirically determined to not be lethal to cells for the duration of the exposure period. […] Cell number was quantitated using a dye incorporation assay, CyQUANT from Molecular Probes (Eugene, Oreg.).

Take `[Cl][Cd][Cl]` [CdCl2, cadmium chloride]: where the note is “final concentrations 10^-4M to 10^-6M CdCl2, 3 hours exposure”, the “lethality to cells for the duration of the exposure period” value was “not be lethal”.

`COS(C)(=O)=O` [MMS, methyl methane sulfonate]: the “lethality to cells for the duration of the exposure period” value (final concentrations 0.5 mM to 2 mM MMS, 3 hours exposure) is “not be lethal”.

For the origin of these results see patent US6618679B2, “Methods for analysis of gene expression” (priority 2000, dated 2003).
